Results as given in patent publication US11478513B2, “Cutibacterium avidum strain, and composition for preventing or treating atopic dermatitis, comprising strain or cultured product thereof” (priority 2018, dated 2022).

Assays:
[1] = tested on: Staphylococcus aureus KCTC 1621; experiment: Growth inhibition, overlay clear zone test (S. aureus); type: cell-based; details: RCM agar overlay, anaerobic, 37° C., about 40 hours; triclosan 10 mg/ml
Experimental: (§1) The effect of growth inhibition of S. aureus and C. acnes was confirmed by observing formation of a clear zone. […] The experiment was progressed, expecting that S. aureus and C. acnes around Cutibacterium avidum GENSC01 could not grow and they became transparent, if Cutibacterium avidum GENSC01 had the effect of inhibiting the growth of bacteria. The Cutibacterium avidum GENSC01 culture broth was collected with a platinum loop and was anaerobically cultured in a thin RCM agar plate at 37° C. for 72 hours by drawing a line about 2.5 cm. After confirming that Cutibacterium avidum GENSC01 sufficiently grew, S. aureus and C. acnes strains adjusted to 10^4 cfu/ml were inoculated in 10 ml RCM agar at about 45° C. which was not yet solidified, and they were well suspended before the medium was hardened, and they were evenly solidified by pouring them on the agar plate in which Cutibacterium avidum GENSC01 grew. In the solidified agar plate, S. aureus and C. acnes were further cultured anaerobically at 37° C. for about 40 hours and about 72 hours, respectively, to observe the size of the clear zone appearing around Cutibacterium avidum GENSC01. As the negative control group, phosphate-buffered saline (PBS) was used, and as the positive control group, triclosan was used, and S. aureus and C. acnes were treated at an amount of 10 mg/ml and 200 mg/ml, respectively.

[2] = tested on: Cutibacterium acnes ATCC 6919; experiment: Growth inhibition, overlay clear zone test (C. acnes); type: cell-based; details: RCM agar overlay, anaerobic, 37° C., about 72 hours; triclosan 200 mg/ml
Experimental: as §1

[3] = tested on: HaCaT cells; experiment: Cytotoxicity (MTT) in HaCaT cells; type: cell-based, human; details: experimental group in which rosmarinic acid was added, 48 hours
Experimental: To evaluate the cytotoxicity of fermented filtrates prepared in the Example 3, the following experiment was progressed. HaCaT cells were attached on a 96-well cell culture plate for 24 hours at 5×10^3 cells/well each and then the test group samples were added by concentration to culture it under the condition of 5% CO2 and 37° C. for 48 hours. 48 hours later, the cultured cell medium was removed, and 0.5 mg/ml dimethylthiazol-2-y1)-2-5-diphenyltetrazolium bromide (MTT) formazan solution was treated to cells, and they were reacted for 4 hours, and after the time passage, all the cell medium was removed and the formazan solution was dissolved by DMSO and then the absorbance was measured at 570 nm with SpectraMax M2. Then, the survival rate of the HaCaT cell line was calculated by converting with the equation of O.Dsample/O.Dcontrol×100.

[4] = tested on: IL-8; experiment: IL-8 RNA expression in HaCaT cells treated with heat-treated C. acnes; type: cell-based, human; details: pre-treated 1 hour, heat-treated C. acnes (100MOI) 4 hours, real-time PCR; compared to control group induced to C. acnes; FIG. 11
Experimental: (§2) At first, GENSCO1 fermented filtrates were pre-treated for 1 hour to cells in which 2×10^5 of HaCaT human keratinocyte lines were attached in a 6-well plate, respectively, by culturing them in a 37° C. and 5% CO2 incubator for 24 hours. Then, the heat-treated C. acnes (100MOI) was treated and was reacted for 4 hours. Then, after extracting RNA for each sample, the RNA expression for the inflammation response cytokine factors, IL-6 and IL-8 was confirmed by real-time PCR.

[5] = tested on: IL-6; experiment: IL-6 RNA expression in HaCaT cells treated with heat-treated C. acnes; type: cell-based, human; details: pre-treated 1 hour, heat-treated C. acnes (100MOI) 4 hours, real-time PCR; FIG. 12
Experimental: as §2

| Compound | growth inhibition of S. aureus (clear zone) [1] | growth inhibition of C. acnes (clear zone) [2] | cell survival rate [3] | IL-8 expression (inflammation response) [4] | expression of IL-6 [5] |
| --- | --- | --- | --- | --- | --- |
| Oc1cc(Cl)ccc1Oc1ccc(Cl)cc1Cl [triclosan] | the clear zone was observed, but it had much smaller area than GENSC01 treatment | the clear zone was observed, but it had much smaller area than GENSC01 treatment | – | – | – |
| O=C(/C=C/c1ccc(O)c(O)c1)O[C@H](Cc1ccc(O)c(O)c1)C(=O)O [rosmarinic acid] | – | – | could be increased | inflammation response was reduced | reduced at a similar level |
